For one series, the system named is MDA MB 231. The experiment in a line: Cytotoxicity assay (propidium iodide), MDA MB 231. The class given is cell-based. As to conditions: MDA MB 231 (C6a, breast); 48 hours.
A further series relates to H460. Put plainly: Cytotoxicity assay (propidium iodide), H460. The class given is cell-based. The following applies: H460 (C1b, lung), 48 hours.
The test system of series [1] is PC3.
A further series deals with STAT3. Put plainly: STAT3 bioassay (Hela Stat3-luc, luciferase). Format: cell-based. The following applies: Oncostatin M induction. The procedure, abridged: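 Hela Stat3-luc cells (20,000/well, 24 h) pretreated with compound 1 h, then induced with 100 ng/ml final Oncostatin M for 7-8 h at 37 °C. Luciferase luminescence after lysis; percent inhibition versus induction control, IC50 from these percentages.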

A further series concerns A549. The experiment in a line: Cytotoxicity assay (propidium iodide), A549. Format: cell-based. As to conditions: A549 (C1a, lung), 48 hours.
A further series deals with HT29. The experiment in a line: Cytotoxicity assay (propidium iodide), HT29. The class given is cell-based. As to conditions: HT29 (C4a, colon); 48 hours.
Another series has as its system IL-6. Put plainly: Human monocyte assay, LPS-stimulated IL-6. Format: cell-based. The following applies: human monocytes, 1 μg/ml LPS, 5 hours. The method in brief: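 Adherent human PBMC-derived monocytes (2×10^4/well) were cultured 48 h, preincubated 30 min with compound or 0.5% DMSO, then stimulated with 1 μg/ml E. coli LPS for 5 h at 37° C. TNF-α and IL-6 in supernatants were measured by ELISA.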

The subject of the next series is A2780. The experiment in a line: Cytotoxicity assay (propidium iodide), A2780. Format: cell-based. As to conditions: A2780 (C3a, ovarian), 48 hours.
The subject of another series is U 87 MG. Put plainly: Cytotoxicity assay (propidium iodide), U 87 MG. The class given is cell-based. As to conditions: Homo sapiens; U 87 MG (C8b, glioblastoma); 48 hours.
A further series has as its target T1, PI3Kα kinase (Homo sapiens, UniProt P42336).
T1 construct: purchased Millipore, USA
Put plainly: Kinase assay (PI3Kα). The class given is biochemical. As to conditions: read-out: IC50 (μM) for PI3K inhibition. The method in brief:
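Recombinant PI3Kα (20 ng) phosphorylated 12.5 μg phosphatidylinositol with 10 μM ATP and 1 μCi ^32γ P […] in 10 mM Hepes pH 7.5, 50 mM MgCl2 for 20 min at 30° C. Lipids were extracted with MeOH/CHCl3, resolved by TLC, and labelled PI quantified by autoradiography densitometry; PI-103 served as standard.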

A further series relates to HCT116. Put plainly: Cytotoxicity assay (propidium iodide), HCT116. The class given is cell-based. As to conditions: Homo sapiens, HCT-116; HCT116 (C4b, colon); 48 hours.
Series [2] deals with PC3. The experiment in a line: Cytotoxicity assay (propidium iodide), PC3. The following applies: Homo sapiens, PC-3, 48 h, read-out: IC50 cytotoxicity.
Another series concerns the target T2, mTOR (Homo sapiens, UniProt P42345).
T2 construct: endogenous in cells; host or cells: A2780 ovarian cell line (ATCC)
The experiment in a line: mTOR activity assay (cell ELISA, Phospho-AKT Ser 473, A2780 cells). The following applies: 1 μM, read-out: % Inhibition of mTOR activity at 1 μM. The class given is cell-based. The protocol:
Seed cells (Ovarian cell line A2780, ATCC) were plated in a 96 well microtitre plate at a density of 50,000 cells/cm^2 in appropriate complete cell culture medium. The cells were allowed to adhere for 18-24 hours. The cells were allowed to starve for 24 hours. […] Then the cells were stimulated with 20% FCS for 30 minutes. A typical assay would consist of a set of unstimulated cells, a set of stimulated cells and a set of cells treated with compounds of present invention and a set of cells treated with the stimulator. The medium was discarded. The cells were fixed with 100 μL of 3.7% formaldehyde for 15 minutes. The formaldehyde was discarded by inverting the plate and tapping it on a thick tissue paper layer to remove traces. The cells were washed and permeabilized with 200 μL PBS+Triton-X 100 solution (hereafter referred to as PBS-Triton, containing 0.1% triton-X 100 in 1×PBS) three times, incubating the cells each time for 5 minutes. 100 μL blocking solution (10% FCS in PBS-Triton) was added and incubated for 1 hour at 25° C. The blocking solution was discarded and cells were incubated with the primary antibody in PBS-Triton at a dilution of 1:500 for 1 hour at RT (25° C.). [The primary antibody is Phospho-AKT (Ser 473); Cell Signaling; Cat. No. 9271]. The primary antibody solution was discarded and the cells were washed 3 times with PBS-Triton solution and incubated with the HRP-conjugated secondary antibody in PBS-Triton at a dilution of 1:500 for 1 hour at RT (25° C.). The cells were washed 3 times with PBS-Triton followed by two washes with PBS (to remove traces of triton-X 100). The OPD (o-phenylene diamine dihydrochloride) substrate was prepared for detection of the signal by dissolving one tablet set (two tablets) of SigmaFast OPD (Sigma, Cat No. P9187) in 20 mL distilled water. It should be protected from light. 100 μL OPD solutions was added to the wells and the plate was incubated in the dark for 3-5 minutes (depending upon the development of the color). The reaction was stopped by adding 50 μL 2 N H2SO4. The absorbance was measured at 490 nm. The values were expressed in the treated samples, in terms of percentage or fold decrease in AKT phosphorylation with respect to the induced sample. PI-103 (Calbiochem, USA) was used as a standard.
(An ELISA detects its analyte on a solid surface through an enzyme-linked reagent.)

The subject of a further series is U 373. The experiment in a line: Cytotoxicity assay (propidium iodide), U 373. Format: cell-based. As to conditions: Homo sapiens, U373 MG; U 373 (C8a, glioblastoma); 48 hours.

pIC50: −log10 of the molar value. Where two headings read alike, the source gives them in different places.

T1 sequence (P42336 whole entry): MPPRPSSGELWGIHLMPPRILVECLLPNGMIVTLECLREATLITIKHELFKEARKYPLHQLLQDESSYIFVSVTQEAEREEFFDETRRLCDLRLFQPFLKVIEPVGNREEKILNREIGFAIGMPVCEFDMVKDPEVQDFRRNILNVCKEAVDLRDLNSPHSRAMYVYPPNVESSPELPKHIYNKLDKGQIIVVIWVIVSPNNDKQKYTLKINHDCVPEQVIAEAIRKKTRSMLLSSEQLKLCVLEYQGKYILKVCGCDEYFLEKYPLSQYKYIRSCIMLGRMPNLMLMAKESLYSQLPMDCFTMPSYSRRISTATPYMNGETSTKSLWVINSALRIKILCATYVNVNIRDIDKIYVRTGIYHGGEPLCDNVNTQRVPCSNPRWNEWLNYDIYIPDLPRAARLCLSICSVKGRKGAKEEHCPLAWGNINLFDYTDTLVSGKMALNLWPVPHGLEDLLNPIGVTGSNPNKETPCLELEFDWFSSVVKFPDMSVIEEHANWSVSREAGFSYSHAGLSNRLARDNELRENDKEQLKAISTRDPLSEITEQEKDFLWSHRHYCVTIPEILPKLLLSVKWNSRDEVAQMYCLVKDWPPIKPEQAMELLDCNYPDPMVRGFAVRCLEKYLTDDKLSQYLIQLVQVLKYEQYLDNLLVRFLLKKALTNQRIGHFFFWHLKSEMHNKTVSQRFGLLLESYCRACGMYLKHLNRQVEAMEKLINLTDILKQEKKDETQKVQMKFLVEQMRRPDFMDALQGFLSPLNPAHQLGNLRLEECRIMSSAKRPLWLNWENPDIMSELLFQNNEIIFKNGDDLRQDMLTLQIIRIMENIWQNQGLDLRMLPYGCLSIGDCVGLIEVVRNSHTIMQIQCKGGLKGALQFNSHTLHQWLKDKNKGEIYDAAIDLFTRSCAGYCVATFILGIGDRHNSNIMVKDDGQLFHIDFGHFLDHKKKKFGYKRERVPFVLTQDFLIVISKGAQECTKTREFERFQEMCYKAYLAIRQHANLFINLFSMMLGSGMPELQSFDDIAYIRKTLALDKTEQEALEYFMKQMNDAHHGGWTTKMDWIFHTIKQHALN
T1 sequence (P27986 whole entry partner): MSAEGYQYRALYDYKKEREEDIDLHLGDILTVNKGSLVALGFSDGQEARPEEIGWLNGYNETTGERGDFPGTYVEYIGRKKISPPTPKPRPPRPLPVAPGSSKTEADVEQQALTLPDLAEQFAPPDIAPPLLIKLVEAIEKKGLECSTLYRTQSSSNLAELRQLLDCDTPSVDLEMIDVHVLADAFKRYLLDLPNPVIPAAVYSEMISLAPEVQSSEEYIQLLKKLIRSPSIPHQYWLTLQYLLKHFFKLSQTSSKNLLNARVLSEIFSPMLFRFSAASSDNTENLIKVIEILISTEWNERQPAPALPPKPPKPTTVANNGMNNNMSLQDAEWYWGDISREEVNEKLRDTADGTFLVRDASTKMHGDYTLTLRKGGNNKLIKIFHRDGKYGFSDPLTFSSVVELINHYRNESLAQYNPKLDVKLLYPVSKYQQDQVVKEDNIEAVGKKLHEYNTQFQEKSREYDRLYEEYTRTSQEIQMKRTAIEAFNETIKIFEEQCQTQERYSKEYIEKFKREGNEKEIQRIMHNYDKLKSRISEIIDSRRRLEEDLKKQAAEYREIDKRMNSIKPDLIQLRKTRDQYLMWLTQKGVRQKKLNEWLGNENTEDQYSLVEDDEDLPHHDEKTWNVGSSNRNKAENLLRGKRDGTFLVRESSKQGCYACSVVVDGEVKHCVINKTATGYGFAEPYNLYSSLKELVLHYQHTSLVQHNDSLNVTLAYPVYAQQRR
Experimental for HCT116: (§1) Cells from cell lines as mentioned in the table given below were seeded at a density of 3000 cells/well in a white opaque 96-well plate. Following incubation at 37° C./5% CO2 for a period of 18-24 hours, the cells were treated with various concentrations (stock solution was prepared in DMSO and subsequent dilutions were made in media as per ATCC guidelines) of the representative compounds of present invention (refer table 3) for a period of 48 hours. At the end of treatment, the spent culture medium was discarded, the cells were washed with 1×PBS and 200 μl of 7 μg/ml propidium iodide was added to each well. The plates were frozen at −70° C. for at least 24 hours. For analysis, the plates were brought to RT, allowed to thaw and were read in PolarStar fluorimeter with the fluorescence setting. The percentage of viable cells in the non treated set of wells was considered to be 100 and the percentage viability following treatment was calculated accordingly. IC50 values were calculated from graphs plotted using these percentages.
Experimental for HT29: as §1
Experimental for MDA MB 231: as §1
Experimental for U 373: as §1
Experimental for U 87 MG: as §1

Consider `Cc1cccc(S(=O)(=O)N(C)N=Cc2cnc3ccc(-c4cccnc4)cn23)c1` [Example 2], for which the pIC50 (usually the negative decadic logarithm of the IC50, by convention in mol/L) with MDA MB 231 is 5.30 to 8.00; in the series on H460 it was 5.30 to 8.00; in the series with PC3 [1] it was 5.30 to 8.00; on STAT3, 5.00 to 5.30; with A549, 5.30 to 8.00; in the series on HT29, less than 5.30. Further, the negative logarithm of the IC50 (pIC50) with A2780 is 5.30 to 8.00. For the same molecule, the IC50 – broadly, the point on the concentration scale where inhibition reaches its midpoint – in the series on IL-6 was in the range of 0.001 to 5 µM.
In the case of `Cc1ccc(S(=O)(=O)N(C)N=Cc2cnc3ccc(-c4cccnc4)cn23)cc1F` [Example 20, 3-Fluoro-N, 4-dimethyl-N′-((6-(pyridine-3-yl)imidazo[1,2-a]pyridine-3-yl)methylene) benzenesulfonohydrazide], the pIC50 with U 87 MG is less than 5.30; in the series on H460 (Homo sapiens, NCI-H460) it was less than 5.30; with HCT116, less than 5.30; in the series with STAT3 (Homo sapiens) it was 5.30 to 7.00; in the series with PC3 [2], less than 5.30; in the series with A549 (Homo sapiens), less than 5.30. For the same molecule, the pIC50 in the series on A2780 (Homo sapiens) and in the series with U 373 was less than 5.30 each time. Besides, the IC50 on PI3Kα kinase fell in the range of 0.01 to 0.5 µM. At mTOR, the inhibition (in general, the share of the control response that was lost under treatment) at 1 µM lay in the range of 30 to 50%.
In the case of `CN(N=Cc1cnc2ccc(-c3cccnc3)cn12)S(=O)(=O)c1ccc(F)c(C#N)c1` [Example 24, 3-Cyano-4-fluoro-N-methyl-N′-((6-(pyridine-3-yl)imidazo[1,2-a]pyridine-3-yl)methylene) benzenesulfonohydrazide], the pIC50 in the series with U 87 MG was 5.30 to 8.00; with H460 (Homo sapiens, NCI-H460), 5.30 to 8.00; in the series on HCT116 it was less than 5.30; in the series with STAT3 (Homo sapiens), less than 5.00; with PC3 [2], 5.30 to 8.00; in the series on A549 (Homo sapiens), 5.30 to 8.00. Besides, the pIC50 in the series on A2780 (Homo sapiens) and with U 373 was 5.30 to 8.00 in each case.
With `Cc1ccc([N+](=O)[O-])cc1S(=O)(=O)N(C)N=Cc1cnc2ccc(-c3ccc(F)nc3)cn12` [Example 83, N′-((6-(6-fluoropyridine-3-yl)imidazo[1,2-a]pyridine-3-yl)methylene)-n, 2-dimethyl-5-nitrobenzenesulfonohydrazide], the pIC50 with MDA MB 231 is 5.30 to 8.00; in the series with H460 it was less than 5.30; with PC3 [1] it was less than 5.30; with A549, less than 5.30; with HT29 it was less than 5.30; with A2780 it was 5.30 to 8.00.

The values are drawn from patent US8741932B2, “Imidazopyridine derivatives” (Piramal Enterprises Limited, priority 2009, dated 2014).
